Data as given in patent publication US6974835B2, “Methods for decreasing cell proliferation based on (3r,4r)-Δ8-tetrahydrocannabinol-11-oic acids” (Indevus Pharmaceuticals, Inc., priority 2000, dated 2005).

Columns and labels:
tumor cells = assay: Stereospecificity of inhibition of cell proliferation (D-isomer vs L-isomer); format: cell-based; settings: 25 μM dose, FIG. 2, p<0.001
PC3 = assay: 48 hour MTT assay, PC3; settings: PC3 (Prostate), 25 μM
U87 = assay: 48 hour MTT assay, U87; settings: U87 (Brain), 25 μM
HS578T = assay: 48 hour MTT assay, HS578T; settings: HS578T (Breast), 25 μM
C6 glioma cells [1] = assay: Microscopy of treated cells (cell size, refractile bodies, electron microscopy)
J82 = assay: 48 hour MTT assay, J82; settings: J82 (Bladder), 25 μM
Du145 = assay: 48 hour MTT assay, Du145; settings: Du145 (Prostate), 25 μM
U373 = assay: 48 hour MTT assay, U373; settings: U373 (Brain), 25 μM
C6 cells = assay: Lipid incorporation assay; format: cell-based; settings: 25 μM, 14C-labeled arachidonic acid, 48 hours; for neutral lipids, increase above basal levels: FIG. 3
[2] = tested on: human cell lines derived from a variety of cancer types (brain, breast, bladder, lung, and prostate); assay: 48 hour MTT assay, mean over the human cancer cell lines; settings: 25 μM, mean of the ten lines of Table 1
C6 glioma cells [3] = assay: Co-incubation with a CB1 antagonist, cell proliferation; format: cell-based; settings: 3.2 μM of a specific CB1 antagonist
C6 glioma cells [4] = assay: Viability by trypan blue exclusion
WI38 cells = assay: Phase microscopy for refractile bodies, WI38; format: cell-based, rat; settings: 48 hours, same dosage
[5] = tested on: human glioma cell line U87 injected subcutaneously in nude mice; assay: In vivo subcutaneous model; settings: 0.1 mg/kg thrice weekly, FIG. 4
Method: In vivo subcutaneous model. 10^6 U87 cells were injected into the right flank muscle of male nu/nu BALBc mice (Charles River). Two days after inoculation, the mice received either 0.1 mg/kg ajulemic acid in 0.05 ml of safflower oil or 0.05 ml safflower oil by oral administration. Thereafter, identical dosings were performed on each Monday, Wednesday, and Friday. When visible tumors appeared, the size of the tumors were estimated by averaging the values of two roughly perpendicular diameters measurements. Visible tumors were measured on the days of drug administration.

Protein kinase C (PKC) = Protein kinase C (PKC) assay; format: cell-based; settings: C6 cells, 25 μM, for one hour
Method: Protein kinase C (PKC) assay. Cells were transferred into MEM media (0.5% serum) and cultured overnight. The next day, cells were treated with either DMSO or 25 μM ajulemic acid for the specified incubation time, after which the plates were trypsinized. 5×10^6 trypsinized cells were assayed for PKC activity using a kit (Calbiochem, cat. no. 53984).

With `CCCCCCC(C)(C)c1cc(O)c2c(c1)OC(C)(C)[C@@H]1CC=C(C(=O)O)C[C@@H]21` (single isomer, unassigned) [D-isomer of ajulemic acid] the “potency of D-isomer compared to the L-isomer of ajulemic acid” value (tumor cells) was “marked decrease in the potency”.

With `CCCCCc1cc(O)c2c(c1)OC(C)(C)[C@@H]1CC=C(C(=O)O)C[C@@H]21` [THC-11-oic acid] the “Percent inhibition of human cancer cell line growth” value (shortened to “Percent inhibition”) (PC3) was 1 ± 1%, the “Percent inhibition” value (U87) was 5 ± 1% and the “Percent inhibition” value (HS578T) was 2 ± 1%. The “refractile bodies noted (in words)” value (C6 glioma cells [1]; C6 glioma cells, 25 μM, 48 hours) was “no refractile bodies were noted”, the “Percent inhibition” value (J82) was 1 ± 1% and the “Percent inhibition” value (Du145) was 7 ± 3%. The “Percent inhibition” value (U373) was 0%, the “neutral lipids, increase above basal levels” value (C6 cells) was “significant increase above basal levels was only noted for ajulemic acid” and the “inhibition levels (mean±SD) over the human cell lines” value [2] was 13.1±18.5%.

In the case of `CCCCCCC(C)(C)c1cc(O)c2c(c1)OC(C)(C)[C@@H]1CC=C(C(=O)O)C[C@@H]21` [ajulemic acid, 1′,1′-dimethylheptyl-Δ^8-THC-11-oic acid], the “change in potency on co-incubation with CB1 antagonist” value (C6 glioma cells [3]) was “slight potentiation”, the viability rate (C6 glioma cells [4]) was over 95% and the “refractile bodies noted (in words)” value (WI38 cells) was “no refractile bodies were noted”. The cell size (C6 glioma cells [1]; after 48 hours of exposure) was “marked increase in cell size”, the “appearance under electron microscopy” value (C6 glioma cells [1]; treated cells) was “neither apoptotic nor necrotic” and the “appearance and size of tumors (in words)” value [5] was “delay in both the appearance and size of tumors”. The “PKC activity versus control” value (Protein kinase C (PKC)) was “approximately two-fold above that of control”, the “content of tri- and di-glyceride versus controls” value (C6 cells) was “over three-fold greater than in controls” and the “neutral lipids, increase above basal levels” value (C6 cells) was “significant increase above basal levels”.

`CCCCCc1cc(O)c2c(c1)OC(C)(C)[C@@H]1CCC(C)=C[C@@H]21` [Δ^9-THC, tetrahydrocannabinol] was tested, and the “change in potency on co-incubation with CB1 antagonist” value (C6 glioma cells [3]) was 150% and the “neutral lipids, increase above basal levels” value (C6 cells) was “significant increase above basal levels was only noted for ajulemic acid”.
